Assay results taken from the supplement of paper PMC11451515.

Tested on: NOMO1
Experiment: cell viability relative to DMSO control; higher = less cytotoxic
Conditions: 48 h
Method in brief: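 NOMO1 or SEM cells were plated at 500 cells/well and P12-Ichikawa cells at 1000 cells/well in 1536-well plates (5 μl), after each leukemia line had been adapted for at least four passages in each medium. Pin dosing delivered library compounds in DMSO at 11 threefold concentrations, 47 μM to 0.79 nM. CellTiter-Glo One luminescence was read after 48 h at 37°C. Viability is reported as a per-plate percentage of DMSO wells, with cell-free wells as background.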

[1] = HPLM + 10% dialyzed FBS, 0.000781 µM
[2] = HPLM + 10% dialyzed FBS, 0.00234 µM
[3] = HPLM + 10% dialyzed FBS, 0.00702 µM
[4] = HPLM + 10% dialyzed FBS, 0.0211 µM
[5] = HPLM + 10% dialyzed FBS, 0.0632 µM
[6] = HPLM + 10% dialyzed FBS, 0.19 µM
[7] = HPLM + 10% dialyzed FBS, 0.569 µM
[8] = HPLM + 10% dialyzed FBS, 1.71 µM
[9] = HPLM + 10% dialyzed FBS, 5.12 µM
[10] = HPLM + 10% dialyzed FBS, 15.4 µM
[11] = HPLM + 10% dialyzed FBS, 46.1 µM
[12] = RPMI 5 mM glucose + 10% FBS, 0.000781 µM
[13] = RPMI 5 mM glucose + 10% FBS, 0.00234 µM
[14] = RPMI 5 mM glucose + 10% FBS, 0.00702 µM
[15] = RPMI 5 mM glucose + 10% FBS, 0.0211 µM
[16] = RPMI 5 mM glucose + 10% FBS, 0.0632 µM
[17] = RPMI 5 mM glucose + 10% FBS, 0.19 µM
[18] = RPMI 5 mM glucose + 10% FBS, 0.569 µM
[19] = RPMI 5 mM glucose + 10% FBS, 1.71 µM
[20] = RPMI 5 mM glucose + 10% FBS, 5.12 µM
[21] = RPMI 5 mM glucose + 10% FBS, 15.4 µM
[22] = RPMI 5 mM glucose + 10% FBS, 46.1 µM
[23] = RPMI 5 mM glucose + 10% dialyzed FBS, 0.000781 µM
[24] = RPMI 5 mM glucose + 10% dialyzed FBS, 0.00234 µM
[25] = RPMI 5 mM glucose + 10% dialyzed FBS, 0.00702 µM
[26] = RPMI 5 mM glucose + 10% dialyzed FBS, 0.0211 µM
[27] = RPMI 5 mM glucose + 10% dialyzed FBS, 0.0632 µM
[28] = RPMI 5 mM glucose + 10% dialyzed FBS, 0.19 µM
[29] = RPMI 5 mM glucose + 10% dialyzed FBS, 0.569 µM
[30] = RPMI 5 mM glucose + 10% dialyzed FBS, 1.71 µM
[31] = RPMI 5 mM glucose + 10% dialyzed FBS, 5.12 µM
[32] = RPMI 5 mM glucose + 10% dialyzed FBS, 15.4 µM
[33] = RPMI 5 mM glucose + 10% dialyzed FBS, 46.1 µM

Row | SMILES | cell viability [1] | cell viability [2] | cell viability [3] | cell viability [4] | cell viability [5] | cell viability [6] | cell viability [7] | cell viability [8] | cell viability [9] | cell viability [10] | cell viability [11] | cell viability [12] | cell viability [13] | cell viability [14] | cell viability [15] | cell viability [16] | cell viability [17] | cell viability [18] | cell viability [19] | cell viability [20] | cell viability [21] | cell viability [22] | cell viability [23] | cell viability [24] | cell viability [25] | cell viability [26] | cell viability [27] | cell viability [28] | cell viability [29] | cell viability [30] | cell viability [31] | cell viability [32] | cell viability [33]
1 | COc1cc(OC)c(/C=C/[S+](=O)([O-])Cc2ccc(OC)c(NCC(=O)[O][Na])c2)c(OC)c1 | 120% | 113% | 119% | 118% | 126% | 60.3% | 43.7% | 47.7% | 44% | 42.5% | 34.4% | 110% | 104% | 102% | 121% | 109% | 99.6% | 27.6% | 23.9% | 27% | 26.7% | 24.9% | 111% | 128% | 111% | 117% | 122% | 37.5% | 31.7% | 26.1% | 26.2% | 23.6% | 24.1%
2 | N[C@H](CSC(c1ccccc1)(c1ccccc1)c1ccccc1)C(=O)O | 108% | 114% | 133% | 135% | 116% | 108% | 115% | 125% | 120% | 129% | 99.6% | 121% | 113% | 126% | 131% | 123% | 118% | 138% | 139% | 114% | 115% | 106% | 106% | 116% | 117% | 129% | 131% | 127% | 134% | 126% | 108% | 109% | 116%
3 | CCn1c(-c2nonc2N)nc2cnc(Oc3cccc(NC(=O)c4ccc(OCCN5CCOCC5)cc4)c3)cc21 | 90.6% | 123% | 105% | 117% | 117% | 104% | 115% | 110% | 94.6% | 95.3% | 83.2% | 92.8% | 98.6% | 111% | 109% | 110% | 95.8% | 87.4% | 93.8% | 82.4% | 74.1% | 64% | 88.9% | 107% | 110% | 102% | 115% | 103% | 89.9% | 87.6% | 79.1% | 71.2% | 74.4%
4 | CN(C)C1=CC=C(C=C1)C(C2=CC=C(C=C2)N(C)C)=C/3\C=C/C(/C=C3)=[N+](C)C | 102% | 114% | 136% | 132% | 103% | 26.6% | 9.97% | 4.17% | 4.13% | 1.55% | 0.245% | 113% | 98.4% | 101% | 113% | 107% | 27.2% | 6.73% | 2.46% | 2.87% | 0.606% | -0.00921% | 112% | 101% | 110% | 100% | 96.9% | 33.1% | 11.3% | 5.56% | 5.09% | 1.49% | 0.371%
5 | CNC1CCC(N(Cc2cccc(-c3ccncc3)c2)C(=O)c2sc3c(F)ccc(F)c3c2Cl)CC1 (stereo unspecified) | 92.9% | 111% | 121% | 123% | 127% | 106% | 111% | 113% | 100% | 97.8% | 36.5% | 95.3% | 108% | 100% | 106% | 118% | 105% | 117% | 105% | 99% | 104% | 81% | 87% | 99.2% | 104% | 115% | 112% | 99.7% | 110% | 100% | 100% | 108% | 57.4%
6 | Cc1ccc([S+](=O)([O-])N[C@@H](Cc2ccccc2)C(=O)CCl)cc1 | 90.2% | 100% | 119% | 119% | 87.3% | 112% | 99.1% | 107% | 106% | 101% | 47.6% | 91.8% | 89.4% | 96% | 96.9% | 97.9% | 91.4% | 90.3% | 81% | 95.1% | 90.7% | 71.1% | 88.8% | 99.6% | 94.6% | 94.6% | 100% | 85.2% | 99.4% | 108% | 97.7% | 85.1% | 73.6%
7 | COc1ccc(C(C)=O)c(O)c1 | 115% | 114% | 109% | 121% | 111% | 93.7% | 98% | 45.9% | 41.4% | 23.9% | 26.2% | 116% | 111% | 119% | 118% | 116% | 127% | 112% | 56.6% | 64.8% | 20.1% | 22.6% | 111% | 115% | 105% | 105% | 124% | 129% | 123% | 75.6% | 59.9% | 25.7% | 24.2%
8 | CNc1nccc(-c2cccnc2Oc2cc(C(=O)Nc3cccc(C(F)(F)F)c3)ccc2C)n1 | 104% | 111% | 120% | 135% | 130% | 147% | 127% | 117% | 115% | 82.7% | 110% | 115% | 102% | 112% | 125% | 120% | 133% | 130% | 119% | 112% | 87.7% | 98.2% | 98% | 105% | 108% | 116% | 108% | 134% | 105% | 125% | 125% | 78.2% | 99.1%
9 | CCOC(=O)C/1=C(O)/C(=O)N(CC2=CC=CC=C2)C1 | 95.4% | 113% | 129% | 124% | 110% | 106% | 103% | 122% | 114% | 103% | 95.6% | 102% | 113% | 98.3% | 99.2% | 98.6% | 99.5% | 111% | 95.9% | 95.7% | 95.7% | 103% | 102% | 118% | 110% | 109% | 110% | 115% | 105% | 111% | 91.2% | 103% | 95.1%
10 | C\C1=C(\C=C(\C#N)C(=O)N1)C2=CC=NC=C2 | 98.3% | 114% | 117% | 116% | 133% | 118% | 123% | 131% | 114% | 103% | 108% | 94.7% | 108% | 110% | 104% | 109% | 111% | 106% | 127% | 103% | 97.5% | 71.5% | 112% | 108% | 119% | 118% | 115% | 114% | 120% | 115% | 114% | 110% | 81.2%
11 | OC1=CC2=C(C(=C1)O)C(=O)\C=C(/O2)C3=CC=CC=C3 | 106% | 106% | 103% | 116% | 109% | 116% | 108% | 118% | 121% | 93.6% | 20.2% | 101% | 97.8% | 92.1% | 97.5% | 100% | 108% | 92.7% | 96.1% | 101% | 105% | 15.6% | 91.9% | 103% | 106% | 104% | 115% | 102% | 115% | 112% | 98.9% | 98.3% | 27.6%
12 | CCC[C@H]1C[C@H](C(=O)N[C@@H]([C@@H]2O[C@@H](SC)[C@@H](O)[C@@H](O)[C@H]2O)[C@H](C)Cl)N(C)C1 | 102% | 117% | 106% | 119% | 128% | 121% | 131% | 118% | 124% | 137% | 114% | 119% | 115% | 108% | 118% | 112% | 134% | 123% | 116% | 129% | 126% | 143% | 112% | 117% | 120% | 113% | 114% | 119% | 122% | 109% | 129% | 127% | 130%
13 | COC(=O)[C@@H]1[C@H]2C[C@H]3c4[nH]c5ccccc5c4CCN3C[C@@H]2CC[C@@H]1O | 120% | 127% | 122% | 131% | 132% | 128% | 108% | 41.2% | 39.8% | 44.5% | 35.6% |  |  |  |  |  |  |  |  |  |  |  |  |  |  |  |  |  |  |  |  |  | 
14 | O=C(c1ccc(Nc2nccc(-c3cc4ccccc4s3)n2)cc1)N1CCC(N2CCCC2)CC1 | 122% | 132% | 125% | 125% | 124% | 114% | 105% | 95.3% | 104% | 41.8% | 1.51% | 113% | 126% | 107% | 110% | 106% | 119% | 118% | 101% | 96.2% | 91.3% | 2.67% | 122% | 129% | 115% | 114% | 124% | 106% | 120% | 121% | 95% | 80.2% | 2.88%
15 | C\C1=C(\C=C(C#N)/C(=O)N1)C2=C[N]3C=CN=C3C=C2 | 69.8% | 82.7% | 88.2% | 79.1% | 80.9% | 79.9% | 83.7% | 89.3% | 97.9% | 94.4% | 93% | 85.2% | 82.2% | 80.6% | 80.9% | 84.5% | 80.1% | 94.5% | 72.7% | 81.1% | 84.8% | 78.9% | 78.8% | 81.1% | 88.1% | 83.4% | 84.2% | 84.5% | 90.2% | 92% | 91.3% | 85.3% | 74.6%
16 | O=C(O[C@H]1C[C@H]2CC[C@@H](C1)[N+]21CCCC1)C(O)(c1ccccc1)c1ccccc1.[Cl-] | 95.5% | 116% | 121% | 107% | 124% | 116% | 116% | 116% | 116% | 110% | 106% | 89.4% | 95.7% | 99.6% | 89.9% | 92.3% | 98.3% | 96.8% | 105% | 100% | 105% | 92.1% | 97.6% | 98.8% | 111% | 109% | 98.1% | 102% | 94.8% | 95% | 111% | 106% | 108%
